The results in this text go back to article PMC11821258 (Molecules, 2025).

Experiment [1] has as its system human normal epithelial cells from the mammary gland (MCF-10A). The experiment can be described thus: Cytotoxicity on non-tumorigenic cells, SRB assay, 72 h. Type of experiment: cell-based. As to conditions: Homo sapiens, MCF-10A normal cells, SRB, read-out: IC50. As to the method:
(§1) The tested compounds were dissolved in DMSO (dimethyl sulfoxide) to a concentration of 10 mg/mL and then were diluted in the culture medium to reach the final concentrations. The cells were plated in 384-well plates at a density of 1 × 10^3 or 2 × 10^3 (MCF-10A) cells per well (Greiner Bio One, Kremsmünster, Austria) and in 96-well plates (MV4-11 cell; Sarstedt, Nümbrecht, Germany) at a density of 5 × 10^3 cells per well. After 24 h of incubation, the tested compounds were added at concentrations in the range of 100–0.03 µg/mL and, after the next 72 h of exposure to tested agents, the cytotoxic effect of all agents was examined using the MTT (MV4-11) or SRB assay, described previously. The values of IC50 (inhibitory concentration 50%) were calculated separately for each experiment (repeated 3–5 times) using the Prolab-3 system which is based on Cheburator 0.4 software. Doxorubicin was applied as a reference drug. The IC50 values in µg/mL were calculated to µM.
(§2) The cytotoxicity assay was performed after the cultured cells were exposed to the tested agents for 72 h using the authomatic Washer dyspenser EL406, BioTek. At the first step, the washer dispenser collected 40 µL of cultured medium from each wells, and then the cells were fixed by gently layering 20 µL per well of cold 25% trichloroacetic acid to each well. The incubation time was 40 min and then the plates were washed with tap water. The cells were stained with 20 µL per well of 0.1% sulforhodamine B (SRB, Merck, Darmstadt, Germany) for 30 min. Unbound sulforhodamine B was removed by washing it with 1% acetic acid. The protein-bound dye was extracted in 30 min using 70 µL per well of 10 mM unbuffered Tris base (Merck, Darmstadt, Germany). The absorbance (at 540 nm) was measured on a Synergy H4 photometer (BioTek Instruments, Winooski, VT, USA). The absorbance of the wells without the cells was the background.
A general note: Sulforhodamine B stains cellular protein and so reports cell mass.

The test system of experiment [2] is human biphenotypic B myelomonocytic leukemia MV4-11. Put plainly: Antiproliferative activity, MTT assay, 72 h. As to conditions: for IC50: Homo sapiens, MV4-11, 72 h, MTT, read-out: IC50; for SI: IC50 MCF-10A / IC50 MV4-11. Type of experiment: cell-based. The method, then:
as §1
This assay was used against MV4-11 leukemia cells and was performed after 72 h of exposure of the tested agents to the cells. For each well, 20 µL of the MTT [3-(4,5-dimethylthiazol-2-yl)-2,5-diphenyl tetrazolium bromide] solution (5 mg/mL, Merck, Darmstadt, Germany) was added. After the incubation time (4 h at 37 °C), 80 µL of the lysing buffer was added to each well (mixture of 225 mL of DMF (dimethylformamide) Avantor, Poland; 67.5 g of SDS, Merck, Darmstadt, Germany; and 275 mL of distilled water). After the next 24 h, the absorbance of the samples was measured at a 570 nm wavelength on a Synergy H4 photometer (BioTek Instruments, Winooski, VT, USA). The absorbance of wells without the cells was the background.

The test system of another experiment is MV4-11 cells. Put plainly: Apoptosis determination via Annexin V and PI staining. It counts as cell-based, human. The method, then:
Camptothecin at a concentration of 0.05 uM was used as a positive control. After incubation, the cells were collected and counted with a hemocytometer, and 1×10^5 cells were washed twice with PBS. APC-Annexin V (Becton Dickinson, Pharmingen, Franklin Lakes, NJ, USA) was dissolved to the concentration of […] in a binding buffer (10 mM HEPES/NaOH, pH 7.4; 150 mM NaCl; 5 mM KCl; 1 mM MgCl2; and 1.8 mM CaCl2) (HIIET, Wrocław, Poland), and the cells were suspended in 200 µL of this solution. After 15 min of the incubation in the dark at room temperature, 20 µL of propidium iodide (PI) solution (0.02 mg/mL) was added. Data acquisition was performed by conducting flow cytometry using a BD LSRFortessa cytometer (BD Bioscience, San Jose, CA, USA). The compounds were tested at least three times independently. Results were analyzed using Flowing software 2.5.1 (Turku, Finland). […] Double-negative cells were live cells, PI+/Annexin V+ were late apoptotic cells, PI-/Annexin V+ were early apoptotic cells, and PI+/Annexin V- were necrotic cells.

For experiment [3], the system named is human pancreas cancer MiaPaca-2 cells. Put plainly: Antiproliferative activity, SRB assay, 72 h. It counts as cell-based. As to conditions: for IC50: Homo sapiens, MIA PaCa-2, MiaPaca-1 (so in the source), 72 h, SRB, read-out: IC50; for SI: IC50 MCF-10A / IC50 MiaPaca-1 (so in the source). The method, then: as §1, §2
Experiment [4] relates to human lung carcinoma A549. The experiment can be described thus: Antiproliferative activity, SRB assay, 72 h. As to conditions: for IC50: Homo sapiens, A549, 72 h, SRB, read-out: IC50; for SI: IC50 MCF-10A / IC50 A549. It counts as cell-based. As to the method: as §1, §2
The test system of experiment [5] is human breast cancer MCF-7. The experiment can be described thus: Antiproliferative activity, SRB assay, 72 h. It counts as cell-based. Conditions: for IC50: Homo sapiens, MCF7, MCF-7, 72 h, SRB, read-out: IC50; for SI: IC50 MCF-10A / IC50 MCF-7. The method, then: as §1, §2
Experiment [6] deals with human colon cancer HCT116 cells. Put plainly: Antiproliferative activity, SRB assay, 72 h. As to conditions: for IC50: Homo sapiens, HCT-116, HCT116, 72 h, SRB, read-out: IC50; for SI: IC50 MCF-10A / IC50 HCT116. Type of experiment: cell-based. The method, then:
as §1, §2

Experiment [7] concerns human prostate adenocarcinoma PC-3. Put plainly: Antiproliferative activity, SRB assay, 72 h. Type of experiment: cell-based. Conditions: for IC50: Homo sapiens, PC-3, 72 h, SRB, read-out: IC50; for SI: IC50 MCF-10A / IC50 PC-3. The method, then:
as §1, §2

For experiment [8], the system named is human melanoma Hs294T cells. Put plainly: Antiproliferative activity, SRB assay, 72 h. It counts as cell-based. Conditions: for IC50: Homo sapiens, Hs 294T, Hs249T (so in the source), 72 h, SRB, read-out: IC50; for SI: IC50 MCF-10A / IC50 Hs249T (so in the source). As to the method:
as §1, §2

Setting [9] is: MV4-11, 72 h, higher concentrations.

For the compound `C#CC(=O)OC[C@]12CC[C@@H](C(=C)C)C1C1CCC3[C@@]4(C)CC[C@H](OC(=O)CC(C)(C)CC(=O)O)C(C)(C)C4CC[C@@]3(C)[C@]1(C)CC2` (stereo partly shown) [Compound 4a], the IC50 (usually the concentration that gives 50% inhibition) stood at 33.1 ± 5.18 µM in experiment [1]; 0.38 ± 0.14 µM in experiment [2]; 7.54 ± 0.47 µM in [3]; 7.54 ± 1.25 µM in [4]; 16.5 ± 1.88 µM in experiment [5]; 7.85 ± 2.35 µM in [6]. Moreover, the results for the half-inhibitory concentration (IC50) in [7] and in [8] were 0.86 ± 0.25 µM and 0.49 ± 0.23 µM, respectively. Further, the induction of apoptosis entry in the experiment with MV4-11 cells (MV4-11, 24 h) was “induced apoptosis”; in the experiment with MV4-11 cells (setting [9]), “induction of apoptosis was observed”. The SI in experiment [3] was 4.40; in experiment [4] it was 4.40; in [5], 2.01; in [6], 4.22; in experiment [8], 67.

For the compound `C=C(C)[C@@H]1CC[C@]2(CO)CC[C@]3(C)C(CCC4[C@@]5(C)CC[C@H](OC(=O)CC(C)(C)C(=O)O)C(C)(C)C5CC[C@]43C)C12` (stereo partly shown) [Compound 5], the IC50 in experiment [1] was found to be 26.8 ± 2.1 µM; in [2], 7.81 ± 2.8 µM; in experiment [3], 30.7 ± 2.63 µM; in experiment [4] it was 9.11 ± 0.87 µM; in experiment [5], 29.2 ± 3.85 µM; in [6] it was 14.7 ± 4.55 µM. The IC50 stood at 27 ± 3.85 µM in [7] and 30.8 ± 1.4 µM in experiment [8]. Further, the SI was determined as 3.43 in [2]; 0.87 in [3]; 2.94 in experiment [4]; 0.92 in [5]; 1.82 in experiment [6]; 1.01 in experiment [7]. Besides, the SI in experiment [8] is given as 0.87.

For `C=C(C)[C@@H]1CC[C@]2(COC(=O)C#CC)CC[C@]3(C)C(CCC4[C@@]5(C)CC[C@H](OC(=O)CC(C)(C)C(=O)O)C(C)(C)C5CC[C@]43C)C12` (stereo partly shown) [Compound 5c], the IC50 came out at 32 ± 4.87 µM in experiment [1]; 11 ± 1.1 µM in experiment [2]; 32 ± 6.12 µM in [3]; 6.59 ± 1.88 µM in experiment [4]; 25 ± 4.87 µM in experiment [5]; 9.26 ± 0.47 µM in experiment [6]. Besides, the half-maximal inhibitory concentration (IC50) in experiment [7] was 22.9 ± 4.71 µM; in [8], 23.2 ± 3.77 µM. Moreover, the SI is 2.91 in [2]; 1.00 in experiment [3]; 4.86 in experiment [4]; 1.28 in experiment [5]; 3.46 in experiment [6]; 1.40 in experiment [7]. In experiment [8], the SI is on record as 1.38.

On to `C=C(C)[C@@H]1CC[C@]2(COC(=O)CC)CC[C@]3(C)C(CCC4[C@@]5(C)CC[C@H](OC(=O)CC(C)(C)C(=O)O)C(C)(C)C5CC[C@]43C)C12` (stereo partly shown) [Compound 5d], for which the IC50 in experiment [1] came to 34.1 ± 4.94 µM; in experiment [2], 2.5 ± 0.48 µM; in experiment [3], 29.2 ± 1.59 µM; in [4], 4.62 ± 1.59 µM; in experiment [5] it was 21.1 ± 9.89 µM; in experiment [6], 12.3 ± 4.15 µM. The IC50 in [7] turned out to be 16.6 ± 6.54 µM; in [8] it was 59.7 ± 38.6 µM. For the same compound, the SI in experiment [2] is 13.63; in [3], 1.17; in experiment [4] it was 7.38; in [5] it was 1.62; in [6] it was 2.78; in experiment [7], 2.06. For the same compound, the SI in experiment [8] stood at 0.57.

For `C=C(C)[C@@H]1CC[C@]2(CO)CC[C@]3(C)C(CCC4[C@@]5(C)CC[C@H](OC(=O)CCC(=O)O)C(C)(C)C5CC[C@]43C)C12` (stereo partly shown) [Compound 6], the IC50 worked out at 31.9 ± 4.24 µM in [1]; 6.45 ± 2.03 µM in [2]; 38.1 ± 3.87 µM in experiment [3]; 8.66 ± 1.1 µM in experiment [4]; 19 ± 6.45 µM in [5]; 20.3 ± 5.53 µM in experiment [6]. In addition, the IC50 in experiment [7] was found to be 26.2 ± 5.71 µM; in experiment [8], 32.1 ± 1.66 µM. In addition, the SI in experiment [2] is recorded as 4.94; in [3], 0.84; in experiment [4], 3.68; in experiment [5], 1.68; in experiment [6] it was 1.57; in experiment [7] it was 1.22. Moreover, in [8], the SI is given as 0.99. Also, the induction of apoptosis entry in the experiment on MV4-11 cells (setting [9]) is given as “induction of apoptosis was observed”.

Regarding `C#CCCC(=O)OC[C@]12CC[C@@H](C(=C)C)C1C1CCC3[C@@]4(C)CC[C@H](OC(=O)CCC(=O)O)C(C)(C)C4CC[C@@]3(C)[C@]1(C)CC2` (stereo partly shown) [Compound 6b], the IC50 in experiment [1] worked out at 30.7 ± 3.69 µM; in experiment [2] it was 3.53 ± 0.64 µM; in [3] it was 27.4 ± 2.57 µM; in experiment [4] it was 3.21 ± 0.64 µM; in experiment [5], 11.4 ± 4.17 µM; in experiment [6] it was 9.95 ± 0.64 µM. Moreover, the values for the IC50 in experiment [7] and in experiment [8] were 13.2 ± 2.57 µM and 17.5 ± 6.26 µM, respectively. Moreover, the SI was 8.68 in experiment [2]; 1.12 in [3]; 9.55 in [4]; 2.69 in [5]; 3.08 in experiment [6]; 2.33 in [7]. Further, in experiment [8], the SI was 1.75.
